PMC10819888, “Benzimidazole-Based Derivatives as Apoptotic Antiproliferative Agents: Design, Synthesis, Docking, and Mechanistic Studies” (Molecules, 2024)

What was measured:
Assay type in all cases: cell-based, human
HL-60(TB) = experiment: NCI-60 five-dose assay; details: HL-60(TB) (Leukemia), 48 h; for GI50 / CC50: Homo sapiens; for GI50: read-out: GI50 Conc. per Cell Line; for CC50: read-out: LC50 (the source's name)
MOLT-4 = experiment: NCI-60 five-dose assay; details: MOLT-4 (Leukemia), 48 h; for GI50 / CC50: Homo sapiens; for GI50: read-out: GI50 Conc. per Cell Line; for CC50: read-out: LC50 (the source's name)
SR = experiment: NCI-60 five-dose assay; details: SR (Leukemia), 48 h; for GI50 / CC50: Homo sapiens; for GI50: read-out: GI50 Conc. per Cell Line; for CC50: read-out: LC50 (the source's name)
HOP-92 = experiment: NCI-60 five-dose assay; details: HOP-92 (Non-Small Cell Lung Cancer), 48 h; for GI50: read-out: GI50 Conc. per Cell Line
NCI-H322M = experiment: NCI-60 five-dose assay; details: NCI-H322M (Non-Small Cell Lung Cancer), 48 h; for GI50 / CC50: Homo sapiens; for GI50: read-out: GI50 Conc. per Cell Line; for CC50: read-out: LC50 (the source's name)
NCI-H522 = experiment: NCI-60 five-dose assay; details: NCI-H522 (Non-Small Cell Lung Cancer), 48 h; for GI50 / CC50: Homo sapiens; for GI50: read-out: GI50 Conc. per Cell Line; for CC50: read-out: LC50 (the source's name)
COLO 205 = experiment: NCI-60 five-dose assay; details: COLO 205 (Colon Cancer), 48 h; for GI50: read-out: GI50 Conc. per Cell Line
KM12 = experiment: NCI-60 five-dose assay; details: KM12 (Colon Cancer), 48 h; for GI50 / CC50: Homo sapiens; for GI50: read-out: GI50 Conc. per Cell Line; for CC50: read-out: LC50 (the source's name)
SF-268 = experiment: NCI-60 five-dose assay; details: SF-268 (CNS Cancer), 48 h; for GI50 / CC50: Homo sapiens; for GI50: read-out: GI50 Conc. per Cell Line; for CC50: read-out: LC50 (the source's name)
SF-295 = experiment: NCI-60 five-dose assay; details: SF-295 (CNS Cancer), 48 h; for GI50 / CC50: Homo sapiens; for GI50: read-out: GI50 Conc. per Cell Line; for CC50: read-out: LC50 (the source's name)
U251 = experiment: NCI-60 five-dose assay; details: U251 (CNS Cancer), 48 h; for GI50 / CC50: Homo sapiens, U-251; for GI50: read-out: GI50 Conc. per Cell Line; for CC50: read-out: LC50 (the source's name)
SK-MEL-2 = experiment: NCI-60 five-dose assay; details: SK-MEL-2 (Melanoma), 48 h; for GI50: read-out: GI50 Conc. per Cell Line
SK-MEL-28 = experiment: NCI-60 five-dose assay; details: SK-MEL-28 (Melanoma), 48 h; for GI50 / CC50: Homo sapiens; for GI50: read-out: GI50 Conc. per Cell Line; for CC50: read-out: LC50 (the source's name)
UACC-257 = experiment: NCI-60 five-dose assay; details: UACC-257 (Melanoma), 48 h; for GI50 / CC50: Homo sapiens; for GI50: read-out: GI50 Conc. per Cell Line; for CC50: read-out: LC50 (the source's name)
UACC-62 = experiment: NCI-60 five-dose assay; details: UACC-62 (Melanoma), 48 h; for GI50 / CC50: Homo sapiens; for GI50: read-out: GI50 Conc. per Cell Line; for CC50: read-out: LC50 (the source's name)
786-0 = experiment: NCI-60 five-dose assay; details: 786-0 (Renal Cancer), 48 h; for GI50 / CC50: Homo sapiens; for GI50: read-out: GI50 Conc. per Cell Line; for CC50: read-out: LC50 (the source's name)
UO-31 = experiment: NCI-60 five-dose assay; details: UO-31 (Renal Cancer), 48 h; for GI50 / CC50: Homo sapiens; for GI50: read-out: GI50 Conc. per Cell Line; for CC50: read-out: LC50 (the source's name)
PC-3 = experiment: NCI-60 five-dose assay; details: PC-3 (Prostate Cancer), 48 h; for GI50: read-out: GI50 Conc. per Cell Line
DU-145 = experiment: NCI-60 five-dose assay; details: DU-145 (Prostate Cancer), 48 h; for GI50 / CC50: Homo sapiens; for GI50: read-out: GI50 Conc. per Cell Line; for CC50: read-out: LC50 (the source's name)
HS 578T = experiment: NCI-60 five-dose assay; details: HS 578T (Breast Cancer), 48 h; for GI50 / CC50: Homo sapiens; for GI50: read-out: GI50 Conc. per Cell Line; for CC50: read-out: LC50 (the source's name)
BT-549 = experiment: NCI-60 five-dose assay; details: BT-549 (Breast Cancer), 48 h; for GI50 / CC50: Homo sapiens; for GI50: read-out: GI50 Conc. per Cell Line; for CC50: read-out: LC50 (the source's name)
T-47D = experiment: NCI-60 five-dose assay; details: T-47D (Breast Cancer), 48 h; for GI50 / CC50: Homo sapiens, T47D; for GI50: read-out: GI50 Conc. per Cell Line; for CC50: read-out: LC50 (the source's name)
[1] = system: Non-Small Cell Lung Cancer subpanel; experiment: NCI-60 five-dose assay, subpanel; details: for GI50: Homo sapiens, Non-Small Cell Lung Cancer, average sensitivity of all subpanel cell lines, read-out: GI50 Subpanel MID b; for GI50 Selectivity Ratio (MID a/MID b): Non-Small Cell Lung Cancer subpanel
Prostate Cancer subpanel = experiment: NCI-60 five-dose assay, subpanel; details: for GI50: Homo sapiens, Prostate Cancer, average sensitivity of all subpanel cell lines, read-out: GI50 Subpanel MID b; for GI50 Selectivity Ratio (MID a/MID b): Prostate Cancer subpanel
Breast Cancer subpanel = experiment: NCI-60 five-dose assay, subpanel; details: for GI50 Selectivity Ratio (MID a/MID b): Breast Cancer subpanel; for GI50: Homo sapiens, Breast Cancer, average sensitivity of all subpanel cell lines, read-out: GI50 Subpanel MID b

O=C(NN=Cc1ccc([N+](=O)[O-])cc1)c1ccc2[nH]c(-c3ccc(Cl)cc3)nc2c1 [Compound 4c, N′-(4-Nitrobenzylidene)-2-(4-chlorophenyl)-1H-benzimidazole-5-carbohydrazide]
TGI (HL-60(TB)): 5.73 µM
GI50 (HL-60(TB)): 0.797 µM
CC50 (HL-60(TB)): > 100 µM
GI50 (MOLT-4): 0.421 µM
CC50 (MOLT-4): > 100 µM
TGI (MOLT-4): 3.85 µM
GI50 (SR): 0.566 µM
CC50 (SR): > 100 µM
TGI (SR): 4.87 µM
TGI (HOP-92): 7.52 µM
GI50 (HOP-92; Homo sapiens): 0.985 µM
GI50 (NCI-H322M): 5.04 µM
CC50 (NCI-H322M): > 100 µM
TGI (NCI-H322M): 26.40 µM
GI50 (NCI-H522): 3.05 µM
CC50 (NCI-H522): > 100 µM
TGI (NCI-H522): 11.70 µM
TGI (COLO 205): 3.76 µM
GI50 (COLO 205; Homo sapiens): 1.46 µM
GI50 (KM12): 3.43 µM
CC50 (KM12): 82.6 µM
TGI (KM12): 13.00 µM
GI50 (SF-268): 4.97 µM
CC50 (SF-268): > 100 µM
TGI (SF-268): 24.30 µM
GI50 (SF-295): 3.4 µM
CC50 (SF-295): 43.8 µM
TGI (SF-295): 13.10 µM
GI50 (U251): 2.92 µM
CC50 (U251): 48 µM
TGI (U251): 10.80 µM
GI50 (SK-MEL-2; Homo sapiens): 5.1 µM
TGI (SK-MEL-2): 21.90 µM
GI50 (SK-MEL-28): 2.6 µM
CC50 (SK-MEL-28): 39 µM
TGI (SK-MEL-28): 10.30 µM
GI50 (UACC-257): 3.37 µM
CC50 (UACC-257): > 100 µM
TGI (UACC-257): 15.40 µM
GI50 (UACC-62): 3.51 µM
CC50 (UACC-62): 52.2 µM
TGI (UACC-62): 14.90 µM
TGI (786-0): 15.70 µM
GI50 (786-0): 3.92 µM
CC50 (786-0): 58.2 µM
GI50 (UO-31): 6.05 µM
CC50 (UO-31): > 100 µM
TGI (UO-31): 38.30 µM
GI50 (PC-3; Homo sapiens): 0.42 µM
TGI (PC-3): 15.30 µM
TGI (DU-145): 21.40 µM
GI50 (DU-145): 3.99 µM
CC50 (DU-145): > 100 µM
TGI (HS 578T): 24.40 µM
GI50 (HS 578T): 3.58 µM
CC50 (HS 578T): > 100 µM
TGI (BT-549): 9.70 µM
GI50 (BT-549): 2.84 µM
CC50 (BT-549): 50.5 µM
GI50 (T-47D): 2.29 µM
CC50 (T-47D): > 100 µM
TGI (T-47D): 7.21 µM
GI50 [1]: 3.52 µM
GI50 Selectivity Ratio (MID a/MID b) [1]: 0.93
GI50 (Prostate Cancer subpanel): 2.2 µM
GI50 Selectivity Ratio (MID a/MID b) (Prostate Cancer subpanel): 1.49
GI50 Selectivity Ratio (MID a/MID b) (Breast Cancer subpanel): 1.31
GI50 (Breast Cancer subpanel): 2.5 µM

O=C(NN=Cc1ccc(Cl)cc1)c1ccc2[nH]c(-c3ccc(Cl)cc3)nc2c1 [Compound 4e, N′-(4-Chlorobenzylidene)-2-(4-chlorophenyl)-1H-benzimidazole-5-carbohydrazide]
TGI (HL-60(TB)): 6.53 µM
GI50 (HL-60(TB)): 1.85 µM
CC50 (HL-60(TB)): 54.8 µM
GI50 (MOLT-4): 1.55 µM
CC50 (MOLT-4): 28.2 µM
TGI (MOLT-4): 4.81 µM
GI50 (SR): 1.01 µM
CC50 (SR): 37 µM
TGI (SR): 3.95 µM
TGI (HOP-92): 3.53 µM
LC50 (50% lethal concentration) (HOP-92; Homo sapiens): 7.47 µM
GI50 (HOP-92; Homo sapiens): 1.67 µM
GI50 (NCI-H322M): 2.15 µM
CC50 (NCI-H322M): 19.8 µM
TGI (NCI-H322M): 5.26 µM
GI50 (NCI-H522): 2.24 µM
CC50 (NCI-H522): 77.9 µM
TGI (NCI-H522): 5.85 µM
TGI (COLO 205): 3.25 µM
GI50 (COLO 205; Homo sapiens): 1.55 µM
CC50 (COLO 205; Homo sapiens, read-out: LC50 (the source's name)): 8.82 µM
GI50 (KM12): 2.03 µM
CC50 (KM12): 9.8 µM
TGI (KM12): 4.46 µM
GI50 (SF-268): 2.08 µM
CC50 (SF-268): 9.09 µM
TGI (SF-268): 4.35 µM
GI50 (SF-295): 1.86 µM
CC50 (SF-295): 6.56 µM
TGI (SF-295): 3.50 µM
GI50 (U251): 2.1 µM
CC50 (U251): 8.35 µM
TGI (U251): 4.18 µM
LC50 (SK-MEL-2; Homo sapiens): 11.4 µM
GI50 (SK-MEL-2; Homo sapiens): 2.09 µM
TGI (SK-MEL-2): 4.64 µM
GI50 (SK-MEL-28): 1.58 µM
CC50 (SK-MEL-28): 5.86 µM
TGI (SK-MEL-28): 3.04 µM
GI50 (UACC-257): 2.14 µM
CC50 (UACC-257): 11.6 µM
TGI (UACC-257): 4.72 µM
GI50 (UACC-62): 1.78 µM
CC50 (UACC-62): 6.49 µM
TGI (UACC-62): 3.40 µM
TGI (786-0): 3.48 µM
GI50 (786-0): 1.79 µM
CC50 (786-0): 6.76 µM
GI50 (UO-31): 1.57 µM
CC50 (UO-31): 5.67 µM
TGI (UO-31): 2.99 µM
LC50 (PC-3; Homo sapiens): 7.05 µM
GI50 (PC-3; Homo sapiens): 1.55 µM
TGI (PC-3): 3.30 µM
TGI (DU-145): 3.44 µM
GI50 (DU-145): 1.76 µM
CC50 (DU-145): 6.7 µM
TGI (HS 578T): 5.27 µM
GI50 (HS 578T): 2.28 µM
CC50 (HS 578T): 63.2 µM
TGI (BT-549): 2.13 µM
GI50 (BT-549): 4.93 µM
CC50 (BT-549): 75.8 µM
GI50 (T-47D): 1.79 µM
CC50 (T-47D): 8.21 µM
TGI (T-47D): 3.83 µM
GI50 [1]: 1.9 µM
GI50 Selectivity Ratio (MID a/MID b) [1]: 0.94
GI50 (Prostate Cancer subpanel): 1.65 µM
GI50 Selectivity Ratio (MID a/MID b) (Prostate Cancer subpanel): 1.08
GI50 Selectivity Ratio (MID a/MID b) (Breast Cancer subpanel): 0.79
GI50 (Breast Cancer subpanel): 2.27 µM
